Laboratory results taken from BindingDB's records for doi:10.1021/acs.jmedchem.6b01711 (University of Strathclyde, 2017).

Columns and labels:
[1] = Antagonist activity at integrin alpha2b beta3 receptor in citrated human platelet-rich plasma assessed as inhibition of ADP-induced platelets aggregation preincubated for 15 mins followed by ADP addition measured for 8 mins by aggregometric analysis
[2] = Inhibition of alpha5 beta1 integrin (unknown origin) by cell proliferation assay
[3] = Inhibition of alpha5 beta1 integrin (unknown origin) by cell migration assay
[4] = Antagonist activity at integrin alpha2b beta3 receptor in citrated human platelet-rich plasma assessed as inhibition of ADP-induced platelet aggregation

Work on `CCc1nn2c(=O)cc(N3CCNCC3)nc2s1` yielded an IC50 [1] of 9.7 µM.

For `O=c1c(C2NCCc3c2[nH]c2ccccc32)c(O)[nH]c(=S)n1Cc1ccc(F)cc1` (centres undefined), the IC50 [2] was 20.5 µM and the IC50 [3] was 15.5 µM.

`N=C(N)c1ccc2cc(OC(=O)c3ccc(N=C(N)N)cc3)ccc2c1` [4-Guanidino-benzoic acid 6-carbamimidoyl-naphthalen-2-yl ester(FUT-175)] gave an IC50 [4] of 12 µM.
